Source: patent US20220241416A1, “METHODS FOR THE IDENTIFICATION OF SARM1 NADASE ACTIVITY INHIBITORS AND USES THEREOF” (Bar Ilan University, priority 2021, published 2022)
Where two headings read alike, the source gives them in different places.

Assays:
[1] = biological target: T1, zfSARM1 (Danio rerio, UniProt F1QWA8); experiment: Kinetic parameters of zfSARM1, substrate inhibition fit; assay type: biochemical, Zebrafish
T1 sequence (F1QWA8 1-713): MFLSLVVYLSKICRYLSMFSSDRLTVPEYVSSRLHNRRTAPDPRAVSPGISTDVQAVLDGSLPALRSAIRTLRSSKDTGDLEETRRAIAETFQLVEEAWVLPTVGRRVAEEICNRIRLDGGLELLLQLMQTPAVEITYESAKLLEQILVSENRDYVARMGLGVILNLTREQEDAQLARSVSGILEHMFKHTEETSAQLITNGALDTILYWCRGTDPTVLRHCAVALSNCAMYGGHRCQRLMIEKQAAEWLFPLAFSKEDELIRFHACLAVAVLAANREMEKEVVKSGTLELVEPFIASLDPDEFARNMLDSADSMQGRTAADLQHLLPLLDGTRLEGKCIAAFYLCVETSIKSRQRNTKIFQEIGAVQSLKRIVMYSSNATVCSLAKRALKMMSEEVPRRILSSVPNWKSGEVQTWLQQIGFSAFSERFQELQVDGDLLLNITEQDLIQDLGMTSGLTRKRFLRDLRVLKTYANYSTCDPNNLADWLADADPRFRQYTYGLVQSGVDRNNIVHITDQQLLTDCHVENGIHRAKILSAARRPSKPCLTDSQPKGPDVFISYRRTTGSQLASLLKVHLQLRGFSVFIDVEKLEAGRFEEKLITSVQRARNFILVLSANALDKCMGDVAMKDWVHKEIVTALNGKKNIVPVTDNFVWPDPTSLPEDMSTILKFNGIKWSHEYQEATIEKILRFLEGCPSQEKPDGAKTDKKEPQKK
Protocol: (§1) FIG. 14C. […] The kinetic parameters were determined from plots of reaction velocity of NAD+ consumption versus substrate (NAD+) concentration and then fitted to the Michaelis-Menten equation (Km and Vmax) or substrate inhibition equation (Ki) using non-linear curve fit in GraphPad Prism. Kcat was calculated by dividing the Vmax with protein molar concentration.
(§2) For Vmax and Km determination, the NADase activity assay was performed with several different NAD+ substrate concentrations and sampled in constant time points. For each NAD+ concentration, linear increase zone was taken for slope (V0) calculation. All data were than fitted to the Michaelis-Menten equation using non-linear curve fit in GraphPad Prism software. Kcat was calculated by dividing the Vmax with protein molar concentration.

[2] = biological target: T2, hSARM1 (Homo sapiens, UniProt Q6SZW1); experiment: Kinetic parameters of hSARM1, substrate inhibition fit; assay type: biochemical
T2 construct: hSARM1w.t; (26ERL . . . GPT724) that was not mutated in E642, was also expressed and isolated; 6xHis (N); TEV cleavage site (N); made in house; host or cells: HEK293F suspension cells
T2 sequence (Q6SZW1 with tags, fused parts or gaps): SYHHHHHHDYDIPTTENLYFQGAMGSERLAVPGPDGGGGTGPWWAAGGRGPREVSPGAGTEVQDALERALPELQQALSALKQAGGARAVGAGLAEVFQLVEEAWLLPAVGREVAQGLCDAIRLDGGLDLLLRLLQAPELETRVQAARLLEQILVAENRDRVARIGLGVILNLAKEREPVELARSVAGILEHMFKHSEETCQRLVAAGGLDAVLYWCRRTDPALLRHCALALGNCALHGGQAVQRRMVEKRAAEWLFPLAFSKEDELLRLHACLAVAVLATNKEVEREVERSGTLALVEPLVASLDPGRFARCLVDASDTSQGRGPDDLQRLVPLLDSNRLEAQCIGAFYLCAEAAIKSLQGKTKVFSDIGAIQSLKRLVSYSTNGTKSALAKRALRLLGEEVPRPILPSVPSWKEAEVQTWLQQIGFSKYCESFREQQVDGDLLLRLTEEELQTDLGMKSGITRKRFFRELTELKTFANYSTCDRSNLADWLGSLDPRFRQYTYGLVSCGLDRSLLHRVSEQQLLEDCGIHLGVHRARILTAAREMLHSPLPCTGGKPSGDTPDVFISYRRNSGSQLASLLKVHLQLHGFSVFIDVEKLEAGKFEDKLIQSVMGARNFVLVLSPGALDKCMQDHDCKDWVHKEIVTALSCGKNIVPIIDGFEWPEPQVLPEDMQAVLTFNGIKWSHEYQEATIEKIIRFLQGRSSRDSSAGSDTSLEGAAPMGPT
Protocol: as §1, §2

NC(=O)c1ccc[n+]([C@@H]2O[C@H](COP(=O)([O-])OP(=O)(O)OC[C@H]3O[C@@H](n4cnc5c(N)ncnc54)[C@H](O)[C@@H]3O)[C@@H](O)[C@H]2O)c1 [NAD+, Nicotinamide adenine dinucleotide]
Ki ([1]; apparent inhibition by substrate, read-out: Ki for NAD+, zfSARM1): 1.35 mM | Ki ([1]; substrate inhibition equation, read-out: Ki, inhibition by the substrate NAD+, zfSARM1): 1.3 mM | Ki ([2]; apparent inhibition by substrate, read-out: Ki for NAD+, hSARM1): 0.727 mM | Ki ([2]; substrate inhibition equation, read-out: Ki, inhibition by the substrate NAD+, hSARM1): 0.7 mM
